This is an account of results in patent publication US10221175B2, “Substituted pyrrolo[3,4-e]indolizines, imidazo[1,2-a]pyrrolo[3,4-e]pyridines, pyrrolo[3,4-e][1,2,4]triazolo[1,5-a]pyridines and pyrrolo[3,4-e][1,2,4]triazolo[4,3-a]pyridines as positive allosteric modulators of muscarinic acetylcholine receptor M1” (Vanderbilt University, priority 2015, dated 2019).

SMILES strings stand for the structures.

The assay deals with T1, mAChR M1 (UniProt P11229).
T1 sequence (P11229 1-460): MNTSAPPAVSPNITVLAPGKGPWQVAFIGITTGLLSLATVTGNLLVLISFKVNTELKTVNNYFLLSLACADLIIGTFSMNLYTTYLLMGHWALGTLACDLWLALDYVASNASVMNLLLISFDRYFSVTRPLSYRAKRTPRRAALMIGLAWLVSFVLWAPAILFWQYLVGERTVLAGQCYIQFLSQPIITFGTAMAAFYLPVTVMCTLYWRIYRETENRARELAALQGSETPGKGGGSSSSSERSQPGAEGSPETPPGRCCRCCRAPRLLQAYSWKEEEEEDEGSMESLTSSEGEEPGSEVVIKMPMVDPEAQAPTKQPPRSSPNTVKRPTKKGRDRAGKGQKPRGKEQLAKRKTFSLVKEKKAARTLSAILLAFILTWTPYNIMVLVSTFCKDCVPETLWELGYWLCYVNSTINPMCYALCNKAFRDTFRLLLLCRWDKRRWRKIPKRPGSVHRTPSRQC
Nature of the assay: mAChR M1 cell-based functional assay (calcium mobilization, potentiation of EC20 acetylcholine response). The following applies: for M1 AChmax (%): maximal response as % of ACh maximum, CHO-K1 cells expressing M1; for EC50: positive allosteric modulator activity, concentration-dependent increase in EC20 acetylcholine response, CHO-K1 cells, >10 μM estimated where no plateau but >20% increase in ACh response. An excerpt:
Chinese hamster ovary (CHO-K1) cells stably expressing rat (r)M1 were purchased from the American Type Culture Collection and cultured according to their indicated protocol. CHO cells stably expressing human (h)M2, hM3, and hM5 were described previously (Levey, et al., 1991); hM1 and hM4 cDNAs were purchased from Missouri S&T cDNA Resource; rM4 cDNA was provided by T. I. Bonner (National Institutes of Health, Bethesda, Md.). rM2 and rM3 were cloned from a rat brain cDNA library and sequence verified. hM1, rM2, rM3, hM4, and rM4 cDNAs were used to stably transfect CHO-K1 cells purchased from the American Type Culture Collection using Lipofectamine2000. To make stable rM2, hM2, rM3, hM4, and rM4 cell lines for use in calcium mobilization assays, these cells also were stably transfected with a chimeric G-protein (Gqi5) (provided by B. R. Conklin, University of California, San Francisco) using Lipofectamine 2000. rM1, hM1, rM3, hM3, rM5, and hM5 cells were grown in Ham's F-12 medium containing 10% heat-inactivated fetal bovine serum (FBS), 20 mM HEPES, and 50 μg/mL G418 sulfate. rM2-Gqi5, hM2-Gqi5, and hM4-Gqi5 cells were grown in the same medium also containing 500 μg/mL Hygromycin B. Stable rM4-Gqi5 cells were grown in DMEM containing 10% heat-inactivated FBS, 20 mM HEPES, 400 μg/mL G418 sulfate, and 500 μg/mL Hygromycin B.
For high throughput measurement of agonist-evoked increases in intracellular calcium, CHO-K1 cells stably expressing muscarinic receptors were plated in growth medium lacking G418 and hygromycin at 15,000 cells/20 μL/well in Greiner 384-well black-walled, tissue culture (TC)-treated, clear-bottom plates (VWR). Cells were incubated overnight at 37° C. and 5% CO2. The next day, cells were washed using an ELX 405 (BioTek) with four washes (80 μL) of assay buffer then aspirated to 20 μL. Next, 20 μL of 16 μM Fluo-4/acetoxymethyl ester (Invitrogen, Carlsbad, Calif.) prepared as a 2.3 mM stock in DMSO and mixed in a 1:1 ratio with 10% (w/v) Pluronic F-127 and diluted in assay buffer was added to the wells and the cell plates were incubated for 50 min at 37° C. and 5% CO2. Dye was removed by washing with the ELX 405 (four 80 μL washes of assay buffer) then aspirated to 20 μL. Compound master plates were formatted in an 11 point CRC format (1:3 dilutions) in 100% DMSO with a starting concentration of 10 mM using the BRAVO liquid handler (Agilent). Test compound CRCs were then transferred to daughter plates (240 nL) using the Echo acoustic plate reformatter (Labcyte, Sunnyvale, Calif.) and then diluted into assay buffer (40 μL) to a 2× stock using a Thermo Fisher Combi (Thermo Fisher Scientific, Waltham, Mass.).
Calcium flux was measured using the Functional Drug Screening System (FDSS) 6000 (Hamamatsu Corporation, Tokyo, Japan) as an increase in the fluorescent static ratio. Compounds were applied to cells (20 μL, 2×) using the automated system of the FDSS 6000 at 4 s into the 300 s protocol and the data were collected at 1 Hz. At 144 s into the 300s protocol, 10 μL of an EC20 concentration of the muscarinic receptor agonist acetylcholine was added (5×), followed by the addition of 12 μL an EC8O concentration of acetylcholine at the 230 s time point (5×). Agonist activity was analyzed as a concentration-dependent increase in calcium mobilization upon compound addition. Positive allosteric modulator activity was analyzed as a concentration-dependent increase in the EC20 acetylcholine response. Antagonist activity was analyzed as a concentration-dependent decrease in the EC80 acetylcholine response. Concentration-response curves were generated using a four-parameter logistical equation in XLfit curve fitting software (IDBS, Bridgewater, N.J.) for Excel (Microsoft, Redmond, Wash.) or Prism (GraphPad Software, Inc., San Diego, Calif.). […]

Broadly, the EC50 is the concentration needed to bring the measured effect to its halfway point. Regarding `Cc1ccc(CN2Cc3ccc4nccn4c3C2=O)cn1` [Compound 36], the “M1 AChmax (%)” value is recorded as 25% and the concentration giving a half-maximal response (EC50) was above 10000 nM.

Turning to `Cn1cc(-c2cc(F)c(CN3Cc4ccc5nncn5c4C3=O)c(F)c2)cn1` [Compound 3], the “M1 AChmax (%)” value is listed as 83% and the EC50 was 656 nM.

Take `O=C1c2c(ccc3nccn23)CN1Cc1ccc(-n2cccn2)cc1F` [Compound 40]: the “M1 AChmax (%)” value was determined as 26% and the half-maximal effective concentration (EC50) is above 10000 nM.

As for `O=C1c2c(ccc3nccn23)CN1Cc1ccc(-n2nccn2)cc1` [Compound 42], the “M1 AChmax (%)” value is given as 35% and the half-maximal effective concentration (EC50) is above 10000 nM.

In the case of `Cn1cc(-c2ccc(CN3Cc4ccc5nncn5c4C3=O)c(F)c2)cn1` [Compound 11], the “M1 AChmax (%)” value is recorded as 86% and the 50% effective concentration (EC50) was 856 nM.

Turning to `O=C1c2c(ccc3nncn23)CN1Cc1ccc(-c2ccc3ncccc3c2)cc1F` [Compound 10], the “M1 AChmax (%)” value is 84% and the 50% effective concentration (EC50) is 1570 nM.

Regarding `Cn1cc(-c2cc(F)c(CN3Cc4ccc5ncnn5c4C3=O)c(F)c2)cn1` [Compound 31, 7-(2,6-difluoro-4-(1-methyl-1H-pyrazol-4-yl)benzyl)-6,7-dihydro-8H-pyrrolo[3,4-e][1,2,4]triazolo[1,5-a]pyridin-8-one], the “M1 AChmax (%)” value is 85.3% and the EC50 is 1630 nM.

As for `COc1ccc(-c2cc(F)c(CN3Cc4ccc5nncn5c4C3=O)c(F)c2)cn1` [Compound 7], the “M1 AChmax (%)” value amounted to 70% and the EC50 is 2640 nM.

Turning to `Cn1cc2c(-c3ccc(CN4Cc5ccc6nccn6c5C4=O)c(F)c3)cccc2n1` [Compound 33], the “M1 AChmax (%)” value was found to be 65% and the EC50 is 2200 nM.

Regarding `Cn1cc(-c2ccc(F)c(CN3Cc4ccc5nncn5c4C3=O)c2)cn1` [Compound 21], the “M1 AChmax (%)” value is 36.8% and the EC50 is above 10000 nM.

For `Cn1cc2c(-c3ccc(CN4Cc5ccc6nncn6c5C4=O)c(F)c3)cccc2n1` [Compound 2, 7-(2-fluoro-4-(2-methyl-2H-indazol-4-yl)benzyl)-6,7-dihydro-8H-pyrrolo [3,4-e][1,2,4]triazol[4,3-a]pyridin-8-one], the “M1 AChmax (%)” value came to 78% and the EC50 was 688 nM.

Regarding `Cn1cc2cc(-c3cc(F)c(CN4Cc5ccc6nncn6c5C4=O)c(F)c3)ccc2n1` [Compound 6], the “M1 AChmax (%)” value amounted to 84% and the EC50 was 488 nM.

`Cn1cc(-c2ccc(CN3Cc4ccc5ncnn5c4C3=O)c(F)c2)cn1` [Compound 30]: the “M1 AChmax (%)” value came out at 85.9% and the EC50 is 677 nM.

Turning to `Cn1cc2c(-c3cc(F)c(CN4Cc5ccc6nncn6c5C4=O)c(F)c3)cccc2n1` [Compound 1, 7-(2,6-difluoro-4-(2-methyl-2h-indazol-4-yl)benzyl)-6,7-dihydro-8H-pyrrolo[3,4-e][1,2,4]triazolo [4,3-a]pyridin-8-one], the “M1 AChmax (%)” value is recorded as 72 (n = 2) %.

On to `Cn1cc2c(-c3cc(F)c(CN4Cc5ccc6nccn6c5C4=O)c(F)c3)cccc2n1` [Compound 32], for which the “M1 AChmax (%)” value is on record as 72% and the EC50 was 1400 nM.

Take `Cn1cc2cc(-c3ccc(CN4Cc5ccc6nncn6c5C4=O)c(F)c3)ccc2n1` [Compound 9, 7-(2-fluoro-4-(2-methyl-2H-indazol-5-yl)benzyl)-6,7-dihydro-8H-pyrrolo [3,4-e][1,2,4]triazolo[4,3-a]pyridin-8-one]: the “M1 AChmax (%)” value came out at 90% and the EC50 is 502 nM.

Take `Cc1ccc(-c2ccc(CN3Cc4ccc5nncn5c4C3=O)c(F)c2)c2cn(C)nc12` [Compound 8]: the “M1 AChmax (%)” value is 82% and the EC50 is 1060 nM.

Consider `Cn1cc2cc(-c3cc(F)c(CN4Cc5ccc6nccn6c5C4=O)c(F)c3)ccc2n1` [Compound 35], for which the “M1 AChmax (%)” value is 42%.

On to `O=C1c2c(ccc3nccn23)CN1Cc1c(F)cc(-c2ccc3ncccc3c2)cc1F` [Compound 39], for which the “M1 AChmax (%)” value worked out at 28%.

On to `Cc1ccc(-c2ccc(CN3Cc4ccc5nnc(C)n5c4C3=O)c(F)c2)c2cn(C)nc12` [Compound 18], for which the “M1 AChmax (%)” value was determined as 82% and the EC50 is 2140 nM.

Regarding `Cn1cc(-c2ccc(CN3Cc4ccc5nccn5c4C3=O)c(F)c2)cn1` [Compound 27], the “M1 AChmax (%)” value came out at 70.1% and the concentration for a half-maximal effect (EC50) is 2260 nM.

`Cn1cc2cc(-c3ccc(F)c(CN4Cc5ccc6nncn6c5C4=O)c3)ccc2n1` [Compound 22]: the “M1 AChmax (%)” value was 35.3% and the EC50 is 1310 nM.

Take `CNC(=O)c1ccc(CN2Cc3ccc4nccn4c3C2=O)cc1` [Compound 41]: the “M1 AChmax (%)” value is 38%.

As to `Cc1cc(-c2ccc(CN3Cc4ccc5nnc(C)n5c4C3=O)c(F)c2)cc2cn(C)nc12` [Compound 20], the “M1 AChmax (%)” value was 84% and the 50% effective concentration (EC50) is 2100 nM.

Consider `O=C1c2c(ccc3nncn23)CN1Cc1c(F)cc(-c2cnc3ccccc3c2)cc1F` [Compound 13], for which the “M1 AChmax (%)” value was found to be 57% and the EC50 was 1820 nM.

For the molecule `Cc1nnc2ccc3c(n12)C(=O)N(Cc1c(F)cc(-c2cnn(C)c2)cc1F)C3` [Compound 14], the “M1 AChmax (%)” value is listed as 79% and the EC50 was 1790 nM.

Consider `Cn1cc2c(-c3ccc(F)c(CN4Cc5ccc6nncn6c5C4=O)c3)cccc2n1` [Compound 23], for which the “M1 AChmax (%)” value is recorded as 56.4% and the EC50 was 1350 nM.

On to `O=C1c2c(ccc3nccn23)CN1Cc1ccc(N2CCOCC2)nc1` [Compound 38], for which the “M1 AChmax (%)” value was 26% and the EC50 is above 10000 nM.

With `O=C1c2c(ccc3nccn23)CN1Cc1ccc(-n2ccnn2)nc1` [Compound 37], the “M1 AChmax (%)” value is on record as 26% and the EC50 was above 10000 nM.

In the case of `O=C1c2c(ccc3nncn23)CN1Cc1c(F)cc(-c2ccc3ncccc3c2)cc1F` [Compound 5], the “M1 AChmax (%)” value is listed as 81% and the EC50 is 743 nM.

For `Cc1nnc2ccc3c(n12)C(=O)N(Cc1ccc(-c2ccc4nn(C)cc4c2)cc1F)C3` [Compound 16], the “M1 AChmax (%)” value is reported as 83% and the 50% effective concentration (EC50) is 1210 nM.

Regarding `O=C1c2c(ccc3nncn23)CN1Cc1ccc(-c2cnc3ccccc3c2)cc1F` [Compound 4], the “M1 AChmax (%)” value is 73% and the EC50 is 1750 nM.

Regarding `Cc1cc(-c2ccc(CN3Cc4ccc5nncn5c4C3=O)c(F)c2)cc2cn(C)nc12` [Compound 17], the “M1 AChmax (%)” value is 81% and the EC50 is 618 nM.

Turning to `Cc1nnc2ccc3c(n12)C(=O)N(Cc1c(F)cc(-c2cccc4nn(C)cc24)cc1F)C3` [Compound 19], the “M1 AChmax (%)” value was determined as 81% and the EC50 was 1410 nM.

Turning to `O=C1c2c(ccc3nncn23)CN1Cc1cc(-c2ccc3ncccc3c2)ccc1F` [Compound 25], the EC50 is above 30000 nM.
